Experiment [1] concerns the target T1, Tyrosine-protein kinase ITK/TSK (Homo sapiens) (UniProt Q08881).
T1 sequence (whole entry): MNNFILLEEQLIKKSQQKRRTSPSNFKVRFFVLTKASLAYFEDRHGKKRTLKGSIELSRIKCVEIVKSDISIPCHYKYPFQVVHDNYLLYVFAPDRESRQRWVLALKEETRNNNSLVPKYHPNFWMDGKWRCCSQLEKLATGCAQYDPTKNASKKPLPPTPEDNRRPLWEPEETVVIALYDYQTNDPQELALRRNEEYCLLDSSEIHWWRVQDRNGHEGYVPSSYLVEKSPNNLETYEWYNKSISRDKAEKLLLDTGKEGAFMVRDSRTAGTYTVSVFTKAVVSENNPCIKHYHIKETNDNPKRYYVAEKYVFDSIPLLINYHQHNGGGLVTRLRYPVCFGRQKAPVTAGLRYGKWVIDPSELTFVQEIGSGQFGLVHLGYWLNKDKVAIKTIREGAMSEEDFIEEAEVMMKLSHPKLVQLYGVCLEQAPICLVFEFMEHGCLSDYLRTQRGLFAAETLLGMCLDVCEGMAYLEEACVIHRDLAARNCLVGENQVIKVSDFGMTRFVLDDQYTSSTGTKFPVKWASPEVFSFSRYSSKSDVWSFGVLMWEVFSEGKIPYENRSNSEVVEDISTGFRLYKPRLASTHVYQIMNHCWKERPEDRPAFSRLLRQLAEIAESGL
The experiment in a line: Selectivity interaction (Ambit KINOMEscan and KiNATiv profiling in Jurkat cells) EUB0000090b ITK. The format is cell-based. Conditions: at 1 µM.

Experiment [2] concerns the target 5-hydroxytryptamine receptor 1B (Homo sapiens) (UniProt P28222). The experiment in a line: Selectivity interaction (Panel of non-epigenetic targets (kinases, GPCRs, ion channels, and transporters, Eurofins) ) EUB0000271b HTR1B. Conditions: at 1 µM.
Experiment [3] has as its target Ribosomal protein S6 kinase alpha-4 (Homo sapiens) (UniProt O75676). The experiment can be described thus: Selectivity interaction (KinomeScan (DiscoverX)) EUB0000607a RPS6KA4. Conditions: at 10 µM.
Experiment [4] concerns T2, Receptor-type tyrosine-protein kinase FLT3 (Homo sapiens), P36888 [R834Q].
T2 sequence (whole entry): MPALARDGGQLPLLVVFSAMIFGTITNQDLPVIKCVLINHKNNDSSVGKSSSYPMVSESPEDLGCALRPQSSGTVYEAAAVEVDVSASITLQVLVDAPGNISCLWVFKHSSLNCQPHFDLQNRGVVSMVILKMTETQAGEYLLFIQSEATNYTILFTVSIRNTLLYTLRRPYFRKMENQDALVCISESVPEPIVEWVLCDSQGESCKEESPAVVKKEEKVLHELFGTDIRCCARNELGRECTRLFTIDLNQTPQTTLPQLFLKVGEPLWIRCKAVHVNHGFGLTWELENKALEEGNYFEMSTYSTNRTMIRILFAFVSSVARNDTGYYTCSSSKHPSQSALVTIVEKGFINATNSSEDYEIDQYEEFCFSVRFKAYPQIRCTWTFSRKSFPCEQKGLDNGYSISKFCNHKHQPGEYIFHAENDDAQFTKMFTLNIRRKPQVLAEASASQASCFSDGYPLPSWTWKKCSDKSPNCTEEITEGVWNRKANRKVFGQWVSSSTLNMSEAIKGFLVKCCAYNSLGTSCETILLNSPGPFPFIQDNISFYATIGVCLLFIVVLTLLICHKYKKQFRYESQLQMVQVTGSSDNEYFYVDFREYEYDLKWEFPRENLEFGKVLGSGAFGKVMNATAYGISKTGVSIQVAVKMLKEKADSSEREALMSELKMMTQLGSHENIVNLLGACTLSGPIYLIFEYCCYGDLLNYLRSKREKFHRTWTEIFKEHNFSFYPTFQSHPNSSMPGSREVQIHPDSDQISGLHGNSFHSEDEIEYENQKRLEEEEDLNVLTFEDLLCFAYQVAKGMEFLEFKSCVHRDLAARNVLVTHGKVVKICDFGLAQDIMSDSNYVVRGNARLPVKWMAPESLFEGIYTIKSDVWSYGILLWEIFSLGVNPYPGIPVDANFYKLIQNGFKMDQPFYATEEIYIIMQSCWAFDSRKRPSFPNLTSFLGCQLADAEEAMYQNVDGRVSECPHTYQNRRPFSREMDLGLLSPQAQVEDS
Conditions: at 10 µM.

Experiment [5] concerns the target T3, Ephrin type-A receptor 3 (Homo sapiens) (UniProt P29320).
T3 sequence (whole entry): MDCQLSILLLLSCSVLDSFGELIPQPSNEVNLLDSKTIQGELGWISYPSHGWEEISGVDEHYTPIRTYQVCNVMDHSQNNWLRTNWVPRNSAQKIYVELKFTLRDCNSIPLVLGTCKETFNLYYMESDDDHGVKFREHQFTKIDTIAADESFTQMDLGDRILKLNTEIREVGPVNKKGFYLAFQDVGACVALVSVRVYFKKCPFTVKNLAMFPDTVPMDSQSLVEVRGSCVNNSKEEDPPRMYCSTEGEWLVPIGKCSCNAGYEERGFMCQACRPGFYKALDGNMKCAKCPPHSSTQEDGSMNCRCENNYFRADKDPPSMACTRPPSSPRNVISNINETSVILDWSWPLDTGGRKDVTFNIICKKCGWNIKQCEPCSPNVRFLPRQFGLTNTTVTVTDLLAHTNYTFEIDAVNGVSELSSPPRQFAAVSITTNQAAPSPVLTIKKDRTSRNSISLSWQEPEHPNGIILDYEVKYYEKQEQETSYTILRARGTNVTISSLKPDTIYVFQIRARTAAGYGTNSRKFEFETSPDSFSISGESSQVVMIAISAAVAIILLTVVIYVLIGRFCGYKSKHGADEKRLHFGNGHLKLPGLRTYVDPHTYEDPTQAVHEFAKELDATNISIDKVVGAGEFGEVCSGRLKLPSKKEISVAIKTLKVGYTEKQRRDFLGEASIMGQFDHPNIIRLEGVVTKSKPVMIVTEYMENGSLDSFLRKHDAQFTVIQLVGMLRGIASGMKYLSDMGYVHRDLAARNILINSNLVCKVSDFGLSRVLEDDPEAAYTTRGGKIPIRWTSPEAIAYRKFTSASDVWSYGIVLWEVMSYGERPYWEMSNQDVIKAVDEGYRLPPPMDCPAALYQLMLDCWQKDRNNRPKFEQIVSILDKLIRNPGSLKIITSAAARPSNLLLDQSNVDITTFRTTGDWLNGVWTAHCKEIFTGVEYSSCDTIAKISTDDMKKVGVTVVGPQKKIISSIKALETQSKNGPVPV
The experiment in a line: Selectivity interaction (KinomeScan (DiscoverX)) EUB0000655a EPHA3. Conditions: at 10 µM.

Experiment [6] deals with Serine/threonine-protein kinase SIK3 (Homo sapiens) (UniProt Q9Y2K2). The experiment can be described thus: Selectivity interaction (KinomeScan (DiscoverX)) EUB0001619a SIK3. Conditions: at 1 µM.
The target of experiment [7] is Casein kinase I isoform gamma-1 (Homo sapiens) (UniProt Q9HCP0). Conditions: at 10 µM.

The structures appear in SMILES notation.

Sequence of Serine/threonine-protein kinase SIK3 (Homo sapiens) (Q9Y2K2 whole entry, looked up, canonical isoform): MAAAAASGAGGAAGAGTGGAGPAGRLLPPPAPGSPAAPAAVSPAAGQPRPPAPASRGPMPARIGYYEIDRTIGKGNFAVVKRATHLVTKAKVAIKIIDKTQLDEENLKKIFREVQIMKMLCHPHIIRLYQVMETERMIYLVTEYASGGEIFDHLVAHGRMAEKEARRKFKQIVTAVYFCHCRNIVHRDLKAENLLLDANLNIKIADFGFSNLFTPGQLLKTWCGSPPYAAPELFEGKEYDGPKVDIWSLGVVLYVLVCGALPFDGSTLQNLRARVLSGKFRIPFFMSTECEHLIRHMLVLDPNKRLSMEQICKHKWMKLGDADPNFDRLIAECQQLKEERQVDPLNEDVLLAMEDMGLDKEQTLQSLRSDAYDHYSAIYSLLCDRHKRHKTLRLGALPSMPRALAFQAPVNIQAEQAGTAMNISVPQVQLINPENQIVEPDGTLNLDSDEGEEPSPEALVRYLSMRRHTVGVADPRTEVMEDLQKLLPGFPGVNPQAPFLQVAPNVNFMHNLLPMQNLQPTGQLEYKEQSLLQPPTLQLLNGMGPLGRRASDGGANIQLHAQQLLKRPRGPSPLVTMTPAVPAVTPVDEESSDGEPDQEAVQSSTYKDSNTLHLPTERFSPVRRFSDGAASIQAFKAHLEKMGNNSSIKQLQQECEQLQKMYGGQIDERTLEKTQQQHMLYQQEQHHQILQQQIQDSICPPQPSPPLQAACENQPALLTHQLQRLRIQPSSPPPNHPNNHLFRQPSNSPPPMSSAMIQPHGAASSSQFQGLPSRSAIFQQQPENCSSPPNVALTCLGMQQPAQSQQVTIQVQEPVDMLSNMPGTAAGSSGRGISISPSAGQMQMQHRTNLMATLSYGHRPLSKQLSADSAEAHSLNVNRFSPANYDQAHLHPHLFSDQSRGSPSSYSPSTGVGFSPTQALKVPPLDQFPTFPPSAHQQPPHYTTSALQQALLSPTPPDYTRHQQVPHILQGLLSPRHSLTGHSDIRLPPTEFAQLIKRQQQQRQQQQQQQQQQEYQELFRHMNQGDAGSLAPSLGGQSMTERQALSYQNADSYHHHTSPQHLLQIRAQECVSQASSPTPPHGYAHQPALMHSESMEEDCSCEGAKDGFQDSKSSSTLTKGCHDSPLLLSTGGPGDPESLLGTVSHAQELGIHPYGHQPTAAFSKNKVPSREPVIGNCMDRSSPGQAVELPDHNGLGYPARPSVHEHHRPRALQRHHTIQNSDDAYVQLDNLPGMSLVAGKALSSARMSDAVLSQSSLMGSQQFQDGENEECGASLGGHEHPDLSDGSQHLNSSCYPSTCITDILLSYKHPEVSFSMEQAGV
Sequence of 5-hydroxytryptamine receptor 1B (Homo sapiens) (P28222 whole entry): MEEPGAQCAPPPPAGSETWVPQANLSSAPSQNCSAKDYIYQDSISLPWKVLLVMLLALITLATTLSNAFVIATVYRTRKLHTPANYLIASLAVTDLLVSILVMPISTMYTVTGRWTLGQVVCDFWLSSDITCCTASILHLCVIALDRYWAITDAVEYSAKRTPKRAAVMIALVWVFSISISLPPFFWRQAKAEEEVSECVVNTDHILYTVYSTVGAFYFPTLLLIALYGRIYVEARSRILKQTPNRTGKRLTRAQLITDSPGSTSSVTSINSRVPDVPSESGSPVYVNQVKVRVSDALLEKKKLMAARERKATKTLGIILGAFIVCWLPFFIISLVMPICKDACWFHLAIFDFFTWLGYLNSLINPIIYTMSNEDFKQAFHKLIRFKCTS
Sequence of Ribosomal protein S6 kinase alpha-4 (Homo sapiens) (O75676 whole entry, looked up): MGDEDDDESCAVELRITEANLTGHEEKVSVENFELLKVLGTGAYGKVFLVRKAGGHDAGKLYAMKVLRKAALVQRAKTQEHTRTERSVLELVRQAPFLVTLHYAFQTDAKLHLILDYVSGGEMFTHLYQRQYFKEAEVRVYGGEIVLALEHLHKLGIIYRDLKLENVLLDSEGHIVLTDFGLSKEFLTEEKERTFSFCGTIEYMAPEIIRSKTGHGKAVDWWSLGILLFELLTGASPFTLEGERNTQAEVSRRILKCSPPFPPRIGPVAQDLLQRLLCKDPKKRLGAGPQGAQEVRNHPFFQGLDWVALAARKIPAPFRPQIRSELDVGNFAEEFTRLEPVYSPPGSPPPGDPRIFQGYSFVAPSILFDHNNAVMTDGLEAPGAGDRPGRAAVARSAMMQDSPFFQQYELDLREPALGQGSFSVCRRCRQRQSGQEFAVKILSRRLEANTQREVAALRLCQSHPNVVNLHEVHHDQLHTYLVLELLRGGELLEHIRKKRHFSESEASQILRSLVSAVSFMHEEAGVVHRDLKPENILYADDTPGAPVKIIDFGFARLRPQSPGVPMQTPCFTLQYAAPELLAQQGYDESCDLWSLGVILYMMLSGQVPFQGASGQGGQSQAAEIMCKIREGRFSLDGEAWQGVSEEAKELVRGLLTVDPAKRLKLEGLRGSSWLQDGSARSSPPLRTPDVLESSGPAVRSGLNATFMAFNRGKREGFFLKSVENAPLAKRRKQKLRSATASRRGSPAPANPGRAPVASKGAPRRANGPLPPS
Sequence of Casein kinase I isoform gamma-1 (Homo sapiens) (Q9HCP0 whole entry, looked up, canonical isoform): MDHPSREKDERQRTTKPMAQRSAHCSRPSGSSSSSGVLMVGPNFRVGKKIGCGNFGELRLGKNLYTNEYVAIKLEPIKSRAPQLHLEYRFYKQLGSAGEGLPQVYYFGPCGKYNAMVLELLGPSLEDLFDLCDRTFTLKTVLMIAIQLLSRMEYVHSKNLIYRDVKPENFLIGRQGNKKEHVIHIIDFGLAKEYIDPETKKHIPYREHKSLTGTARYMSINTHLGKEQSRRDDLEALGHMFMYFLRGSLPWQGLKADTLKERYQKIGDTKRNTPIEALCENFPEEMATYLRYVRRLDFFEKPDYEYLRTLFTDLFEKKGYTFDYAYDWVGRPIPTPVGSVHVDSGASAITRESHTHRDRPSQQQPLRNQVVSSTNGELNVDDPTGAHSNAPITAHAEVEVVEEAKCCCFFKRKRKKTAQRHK

`CN(C)C/C=C/C(=O)Nc1ccc(C(=O)N2CCCC(Nc3ncc(Cl)c(-c4c[nH]c5ccccc45)n3)C2)cc1` (configuration not stated) had a % of control in experiment [1] of 91%.
With `Cc1cc(C)cc([C@@H]2c3cc(C)ccc3NC(=O)CN2C(=O)c2ccc(Br)s2)c1`, the % of inhibition in experiment [2] was found to be 6%.
Consider `CNC(=O)Nc1ccc(-c2nc(N3CC4CCC(C3)O4)c3cnn(C4CCC5(CC4)OCCO5)c3n2)cc1`, for which the % of control in experiment [3] was 90%.
On to `Cc1cc([C@@H](C)Nc2ccccc2C(=O)O)c2nc(N3CCOCC3)cc(=O)n2c1` [AZD-6482], for which the % of control in experiment [4] stood at 94%.
In experiment [5], `CN(C)CCOc1ccc(-c2nc(-c3ccncc3)c(-c3ccc4c(c3)CC/C4=N\O)[nH]2)cc1` gave a % of control of 99%.
Compound `N#Cc1cccc(-c2c[nH]c3ncnc(N4CCOCC4)c23)c1` gave a % of control in experiment [6] of 100%.
In experiment [7], `CCN(CC)CCCCNc1ncc2cc(-c3cc(OC)cc(OC)c3)c(NC(=O)NC(C)(C)C)nc2n1` had a % of control of 100%.
